Experimental findings from patent US8574563B2 (Bristol-Myers Squibb Company, priority 2006, dated 2013) are described below.

One may read the EC50 as the concentration giving half of the maximal effect.

This assay relates to HCV 1b-377-neo replicon cells. Put plainly: HCV replicon assay, HCV 1b-377-neo replicon cells (1b FRET). The format is cell-based, Hepatitis C virus genotype 1b. The settings on record: Hepatitis C virus, HCV 1b-377-neo replicon cells; HCV 1b genotype; read-out: EC50 range against HCV 1b (Table 2, Range). The essentials:
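Compounds were tested in genotype 1b subgenomic replicon cells carrying a neomycin marker, alongside a matched replicon line with an NS5A Y2065H substitution that confers resistance to a reference NS5A inhibitor.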
Regarding `COC(=O)N[C@H](C(=O)N1[C@H](c2ncc(-c3ccc(-c4ccc(-c5cnc([C@@H]6C[C@@H]7C[C@@H]7N6C(=O)[C@@H](NC(=O)OC)C(C)C)[nH]5)cc4)cc3)[nH]2)C[C@@H]2C[C@@H]21)C(C)C` [Example M122, methyl ((1S)-1-(((1S,3S,5S)-3-(5-(4′-(2-((1S,3S,5S)-2-((2S)-2-((methoxycarbonyl)amino)-3-methylbutanoyl)-2-azabicyclo[3.1.0]hex-3-yl)-1H-imidazol-5-yl)-4-biphenylyl)-1H-imidazol-2-yl)-2-azabicyclo[3.1.0]hex-2-yl)carbonyl)-2-methylpropyl)carbamate], the EC50 lay in the range of 1 to 99 nM.

For the compound `COC(=O)N[C@@H](C(=O)N1[C@H](c2ncc(-c3ccc(-c4ccc(-c5cnc([C@@H]6C[C@@H]7C[C@@H]7N6C(=O)[C@H](NC(=O)OC)C(C)C)[nH]5)cc4)cc3)[nH]2)C[C@@H]2C[C@@H]21)C(C)C` [Example M123, methyl ((1R)-1-(((1S,3S,5S)-3-(5-(4′-(2-((1S,3S,5S)-2-((2R)-2-((methoxycarbonyl)amino)-3-methylbutanoyl)-2-azabicyclo[3.1.0]hex-3-yl)-1H-imidazol-5-yl)-4-biphenylyl)-1H-imidazol-2-yl)-2-azabicyclo[3.1.0]hex-2-yl)carbonyl)-2-methylpropyl)carbamate], the EC50 fell in the range of 1000 to 10000 nM.

Take `COC(=O)N[C@@H](C(=O)N1[C@H](c2ncc(-c3ccc(-c4ccc(-c5cnc([C@@H]6C[C@@H]7C[C@@H]7N6C(=O)[C@H](NC(=O)OC)c6ccccc6)[nH]5)cc4)cc3)[nH]2)C[C@@H]2C[C@@H]21)c1ccccc1` [Example M124, dimethyl (4,4′-biphenyldiylbis(1H-imidazole-5,2-diyl(1S,3S,5S)-2-azabicyclo[3.1.0]hexane-3,2-diyl((1R)-2-oxo-1-phenyl-2,1-ethanediyl)))biscarbamate]: the EC50 lay in the range of 1 to 99 nM.

As to `COC(=O)N[C@H](C(=O)N1[C@H](c2ncc(-c3ccc(-c4ccc(-c5cnc([C@@H]6C[C@@H]7C[C@@H]7N6C(=O)[C@@H](NC(=O)OC)C(C)(C)O)[nH]5)cc4)cc3)[nH]2)C[C@@H]2C[C@@H]21)C(C)(C)O` [Example M125, methyl ((1S)-2-hydroxy-1-(((1S,3S,5S)-3-(5-(4′-(2-((1S,3S,5S)-2-((2S)-3-hydroxy-2-((methoxycarbonyl)amino)-3-methylbutanoyl)-2-azabicyclo[3.1.0]hex-3-yl)-1H-imidazol-5-yl)-4-biphenylyl)-1H-imidazol-2-yl)-2-azabicyclo[3.1.0]hex-2-yl)carbonyl)-2-methylpropyl)carbamate], the EC50 fell in the range of 1 to 99 nM.

As for `CC[C@H](NC(=O)OC)C(=O)N1[C@H](c2ncc(-c3ccc(-c4ccc(-c5cnc([C@@H]6C[C@@H]7C[C@@H]7N6C(=O)[C@H](CC)NC(=O)OC)[nH]5)cc4)cc3)[nH]2)C[C@@H]2C[C@@H]21` [Example M126, dimethyl (4,4′-biphenyldiylbis(1H-imidazole-5,2-diyl(1S,3S,5S)-2-azabicyclo[3.1.0]hexane-3,2-diyl((2S)-1-oxo-1,2-butanediyl)))biscarbamate], the EC50 is 1 to 99 nM. Take `COC(=O)N[C@H](C(=O)N1[C@H](c2ncc(-c3ccc(-c4ccc(-c5cnc([C@@H]6C[C@@H]7C[C@@H]7N6C(=O)[C@@H](NC(=O)OC)C6CC6)[nH]5)cc4)cc3)[nH]2)C[C@@H]2C[C@@H]21)C1CC1` [Example M127, dimethyl (4,4′-biphenyldiylbis(1H-imidazole-5,2-diyl(1S,3S,5S)-2-azabicyclo[3.1.0]hexane-3,2-diyl((1S)-1-cyclopropyl-2-oxo-2,1-ethanediyl)))biscarbamate]: the EC50 lay in the range of 1 to 99 nM. Turning to `COC(=O)N[C@H](C(=O)N1[C@H](c2ncc(-c3ccc(-c4ccc(-c5cnc([C@@H]6C[C@@H]7C[C@@H]7N6C(=O)[C@@H](NC(=O)OC)C(C)(C)C)[nH]5)cc4)cc3)[nH]2)C[C@@H]2C[C@@H]21)C(C)(C)C` [Example M128, methyl ((1S)-1-(((1S,3S,5S)-3-(5-(4′-(2-((1S,3S,5S)-2-((2S)-2-((methoxycarbonyl)amino)-3,3-dimethylbutanoyl)-2-azabicyclo[3.1.0]hex-3-yl)-1H-imidazol-5-yl)-4-biphenylyl)-1H-imidazol-2-yl)-2-azabicyclo[3.1.0]hex-2-yl)carbonyl)-2,2-dimethylpropyl)carbamate], the EC50 lay in the range of 1 to 99 nM. The figure for `COC(=O)NCC(=O)N1[C@H](c2ncc(-c3ccc(-c4ccc(-c5cnc([C@@H]6C[C@@H]7C[C@@H]7N6C(=O)CNC(=O)OC)[nH]5)cc4)cc3)[nH]2)C[C@@H]2C[C@@H]21` [Example M129, methyl (2-((1S,3S,5S)-3-(5-(4′-(2-((1S,3S,5S)-2-(((methoxycarbonyl)amino)acetyl)-2-azabicyclo[3.1.0]hex-3-yl)-1H-imidazol-5-yl)-4-biphenylyl)-1H-imidazol-2-yl)-2-azabicyclo[3.1.0]hex-2-yl)-2-oxoethyl)carbamate] is 1000 to 10000 nM; for `COC(=O)N[C@@H](C)C(=O)N1[C@H](c2ncc(-c3ccc(-c4ccc(-c5cnc([C@@H]6C[C@@H]7C[C@@H]7N6C(=O)[C@H](C)NC(=O)OC)[nH]5)cc4)cc3)[nH]2)C[C@@H]2C[C@@H]21` [Example M130, methyl ((1S)-2-((1S,3S,5S)-3-(5-(4′-(2-((1S,3S,5S)-2-(N-(methoxycarbonyl)-L-alanyl)-2-azabicyclo[3.1.0]hex-3-yl)-1H-imidazol-5-yl)-4-biphenylyl)-1H-imidazol-2-yl)-2-azabicyclo[3.1.0]hex-2-yl)-1-methyl-2-oxoethyl)carbamate] it is 1 to 99 nM.

With `COC(=O)N[C@H](C(=O)N1[C@@H](c2ncc(-c3ccc(-c4ccc(-c5cnc([C@H]6C[C@H]7C[C@H]7N6C(=O)[C@@H](NC(=O)OC)C(C)C)[nH]5)cc4)cc3)[nH]2)C[C@H]2C[C@H]21)C(C)C` [Example M131, methyl ((1S)-1-(((1R,3R,5R)-3-(5-(4′-(2-((1R,3R,5R)-2-((2S)-2-((methoxycarbonyl)amino)-3-methylbutanoyl)-2-azabicyclo[3.1.0]hex-3-yl)-1H-imidazol-5-yl)-4-biphenylyl)-1H-imidazol-2-yl)-2-azabicyclo[3.1.0]hex-2-yl)carbonyl)-2-methylpropyl)carbamate], the EC50 was in the range of 0.001 to 0.999 nM. Regarding `COC(=O)N[C@@H](C)C(=O)N1[C@@H]2C[C@@H]2C[C@H]1c1ncc(-c2ccc(-c3ccc(-c4cnc([C@@H]5C[C@H]6C[C@H]6N5C(=O)[C@H](C)NC(=O)OC)[nH]4)cc3)cc2)[nH]1` [Example M132, methyl ((1S)-2-((1R,3S,5R)-3-(4-(4′-(2-((1R,3S,5R)-2-(N-(methoxycarbonyl)-L-alanyl)-2-azabicyclo[3.1.0]hex-3-yl)-1H-imidazol-4-yl)-4-biphenylyl)-1H-imidazol-2-yl)-2-azabicyclo[3.1.0]hex-2-yl)-1-methyl-2-oxoethyl)carbamate], the half-maximal effective concentration (EC50) fell in the range of 0.001 to 0.999 nM. The figure for `CC[C@H](NC(=O)OC)C(=O)N1[C@@H]2C[C@@H]2C[C@H]1c1nc(-c2ccc(-c3ccc(-c4c[nH]c([C@@H]5C[C@H]6C[C@H]6N5C(=O)[C@H](CC)NC(=O)OC)n4)cc3)cc2)c[nH]1` [Example M133, dimethyl (4,4′-biphenyl-diylbis(1H-imidazole-4,2-diyl(1R,3S,5R)-2-azabicyclo[3.1.0]hexane-3,2-diyl((2S)-1-oxo-1,2-butanediyl)))biscarbamate] is 0.001 to 0.999 nM.
